Measured values: ChEMBL document CHEMBL6153034, “Synthesis of dolutegravir derivatives modified by 1,2,3-triazole structure and their anti-inflammatory activity in LPS-induced BV2 cells” (Bioorg Med Chem Lett, 2025)

Assays:
BV-2 [1] = assay: Antiinflammatory activity in LPS-induced mouse BV-2 cells assessed as reduction in NO release relative to control; format: functional; design: scale not given: the % may be the effect or the level left
RAW264.7 = assay: Antiinflammatory activity in LPS-induced mouse RAW264.7 cells assessed as inhibition of NO production; format: functional, cell-based
[2] = test system: Human immunodeficiency virus 1; assay: Antiviral activity against HIV-1; format: functional, organism-based
[3] = Cytotoxicity against mouse BV-2 cells assessed as cell viability at 1 uM by MTT assay relative to control; format: toxicity, cell-based; conditions: read-out: Activity
BV-2 [4] = assay: Antiinflammatory activity in LPS induced mouse BV-2 cells assessed as inhibition of NO production by Griess reagent based assay; format: functional, cell-based
BV-2 [5] = assay: Antiinflammatory activity in LPS induced mouse BV-2 cells assessed as NO production at 1 uM by Griess reagent based assay relative to control
BV-2 [6] = assay: Antiinflammatory activity in LPS induced mouse BV-2 cells assessed as NO production at 10 uM by Griess reagent based assay relative to control
[7] = Cytotoxicity against mouse BV-2 cells assessed as cell viability at 10 uM by MTT assay relative to control; format: toxicity, cell-based; conditions: read-out: Activity
[8] = test system: Human immunodeficiency virus 1; assay: Antiviral activity against HIV-1 infected in human C8166 cells assessed as inhibition of virus-induced cytopathic effect; format: functional, organism-based; conditions: Human immunodeficiency virus 1, C8166

Row | IC50 (RAW264.7) [µM] | EC50 [2] [µM] | IC50 (BV-2 [4]) [µM] | EC50 [8] [µM] | SMILES | Activity (BV-2 [1]) [%] | viability at 1 µM [3] [%] | level, % of control at 1 µM (BV-2 [5]) [%] | level, % of control at 10 µM (BV-2 [6]) [%] | viability at 10 µM [7] [%]
1 |  |  |  |  | CC(=O)Oc1ccc2c(=O)c(-c3ccc(-n4cc(-c5ccc6c(c5)C(=O)N5CCCC5C(=O)N6)nn4)cc3)coc2c1 (stereo not drawn) | 64.28 |  |  |  | 
2 | < 10 | < 10 |  |  | Cc1ccc([C@@](C)(O)CC[C@@H](O)C(C)(C)O)cc1 |  |  |  |  | 
3 |  |  | 11 |  | COc1ccccc1-n1cc(-c2cccc(NC(=O)c3cn4c(c(OC)c3=O)C(=O)N3[C@H](C)CCO[C@H]3C4)c2)nn1 |  | 109 | 76 | 48.6 | 76.8
4 | < 10 |  |  | < 10 | C=CC(C)(C)c1cc2cc([C@@H](O)[C@@H](O)C(C)(C)O)c(O)cc2oc1=O |  |  |  |  | 
5 |  |  | 5.03 |  | COc1c2n(cc(C(=O)Nc3cccc(-c4cn(-c5ccccc5I)nn4)c3)c1=O)C[C@@H]1OCC[C@@H](C)N1C2=O |  | 96.4 | 78.4 | 52.1 | 89.2
6 |  |  |  |  | COc1c2n(cc(C(=O)Nc3cccc(-c4cn(-c5ccccc5C(F)(F)F)nn4)c3)c1=O)C[C@H]1OC[C@H](C)N1C2=O |  | 97.4 | 103 | 82.3 | 42.9
7 |  |  | 9.68 |  | COc1c2n(cc(C(=O)Nc3cccc(-c4cn(-c5c(C)cc(C)cc5C)nn4)c3)c1=O)C[C@@H]1OCC[C@@H](C)N1C2=O |  | 102 | 85.1 | 46 | 96.7
8 |  |  |  |  | COc1c2n(cc(C(=O)Nc3ccc(-c4cn(-c5ccc(F)cc5)nn4)cc3)c1=O)C[C@@H]1OCC[C@@H](C)N1C2=O |  | 103 | 91.9 | 82.1 | 73.3
9 |  |  |  |  | COc1c2n(cc(C(=O)Nc3ccccc3-c3cn(-c4ccc(C(F)(F)F)cc4)nn3)c1=O)C[C@@H]1OCC[C@@H](C)N1C2=O |  | 104 | 81 | 84.7 | 96.3
10 |  |  |  |  | CCc1ccccc1-n1cc(-c2ccc(NC(=O)c3cn4c(c(OC)c3=O)C(=O)N3[C@H](C)CCO[C@H]3C4)cc2)nn1 |  | 110 | 118 | 60.2 | 123
11 |  |  |  |  | COc1c2n(cc(C(=O)Nc3ccc(-c4cn(-c5cc(C(F)(F)F)ccc5C(F)(F)F)nn4)cc3)c1=O)C[C@@H]1OCC[C@@H](C)N1C2=O |  | 108 | 83 | 69 | 109
12 |  |  |  |  | COc1c2n(cc(C(=O)Nc3cccc(-c4cn(-c5cc(C(F)(F)F)ccc5C(F)(F)F)nn4)c3)c1=O)C[C@H]1OC[C@H](C)N1C2=O |  | 91.9 | 118 | 109 | 71.1
13 |  |  |  |  | COc1c2n(cc(C(=O)Nc3cccc(-c4cn(-c5ccccc5)nn4)c3)c1=O)C[C@H]1OC[C@H](C)N1C2=O |  | 111 | 127 | 132 | 65.6
